Laboratory results taken from patent publication US5616613A, “Platinum(II) complex and malignant tumor treatment agent” (priority 1994, dated 1997).

Experiments:
[1] = system: mouse leukemia L1210; experiment: Antitumor activity against L1210 cell-planted mice (T/C value); format: in vivo; conditions: intraperitoneal, CDF1 mice
Method: A portion of 1×10^5 mouse leukemia L1210 cells subcultured in DBA/2 mice were transplanted in the abdominal cavities of CDF1 mice (male, 6 weeks old, 6-10 animals/group). Each of the test compounds was intraperitoneally administered to the mice on the 1st, […] and 9th days after the day of transplantation. Each of the preparations was used after being dissolved in distilled water.
The antitumor activity of the platinum complexes against the L1210 cell-planted mice was evaluated based on the T/C value determined by the following equation. [formula]

[2] = system: cisplatin-resistant L1210 cells; experiment: In vitro cytotoxic effect on cisplatin-resistant mouse leukemia L1210 cells (XTT colorimetric method); format: cell-based; conditions: read-out: 50% cell growth inhibition concentration (IC50), 37° C., 5 days
Method: A test of the in vitro cytotoxic effect of compound 15 and cisplatin on cisplatin-resistant mouse leukemia L1210 cells was conducted in the following manner.
1×10^5 cisplatin-resistant L1210 cells were seeded in a 96-well plate at 100 μl per well. About 100 μl of the drugs at graded dilutions was added to each well. Culturing was then performed at 37° C. for 5 days, and the cells were counted by the XTT colorimetric method.

[3] = system: testicular carcinoma; conditions: cited from earlier work; for effectiveness against testicular carcinoma and the like (in words): in vivo
[4] = prior-art complexes; cited from earlier work

Q: Which T/C ([1]; 0.25 mg/kg) does the source give for `N.N.[Cl][Pt][Cl]` [Cisplatin, cis-diamminedichloroplatinum(II) complex] here?
A: 101%

Q: What about the T/C ([1]; 0.5 mg/kg) of the same compound?
A: 101%

Q: What about the T/C ([1]; 1 mg/kg) of the same compound?
A: 106%

Q: What about the T/C ([1]; 2 mg/kg) of the same compound?
A: 123%

Q: And the T/C ([1]; 4 mg/kg)?
A: 160%

Q: What about the IC50 [2] of the same compound?
A: 10.7 nM

Q: And the “effectiveness against testicular carcinoma and the like (in words)” value [3]?
A: very effective

Q: And the “potency when readministered to recurrent patients (in words)” value [3]?
A: lowered potency

Q: Which results are given for `N.N.O=C([O-])C1(C(=O)[O-])CCC1.[Pt+2]` [carboplatin]?
A: effectiveness against testicular carcinoma and the like (in words) [3]: very effective; potency when readministered to recurrent patients (in words) [3]: lowered potency

Q: For `O=C(O)c1ccc(C(=O)O)c(C(=O)O)c1` [trimellitic acid], which “stability in aqueous solutions (in words)” value [4] is on record?
A: poor stability
